74 molecules from article PMC12040169 (PLOS Biology, 2025) can be followed below.

The nature of this series: in vitro. To be noted: human, hela cells, % viability.

In the case of `Cc1c(O)ccc2c(COC(=O)C3(c4ccccc4)CCCC3)cc(=O)oc12` [CBK295622], the viability at 28.5 h, 10 µM was found to be 98.8%.

As for `Cc1noc2nc(-c3ccco3)cc(C(=O)N(C)CCOc3ccccc3)c12` [CBK295623], the viability at 28.5 h, 10 µM amounted to 90.1%. For `CN(Cc1cn(-c2ccccc2)nc1-c1ccccc1)C(=O)CCc1n[nH]c(=S)[nH]c1=O` [CBK295630], the viability at 28.5 h, 10 µM is 102%.

For `O=C(OCCCc1cccnc1)c1cc(=O)[nH]c2ccccc12` [CBK295631], the viability at 28.5 h, 10 µM stood at 99.7%. For `O=C(NC(c1ccc(F)cc1)c1cccs1)c1ccccn1` (centres unmarked) [CBK295636] the value was 106%.

Consider `Cc1cc(NC(=O)C(C)N2CCN(S(=O)(=O)c3ccc(C4CCCCC4)cc3)CC2)on1` (centres unmarked) [CBK295639], for which the viability at 28.5 h, 10 µM amounted to 101%. On to `O=C(COc1ccc(-c2ccccc2)cc1Cl)N1CCN(C(=O)C2CC2)CC1` [CBK295640], for which the viability at 28.5 h, 10 µM stood at 96.8%. For `Cc1cc(C(=O)CSc2nc(=O)cc(O)n2CC(C)C)c(C)n1C` [CBK295649] the value was 85.4%; for `COCCCn1c(SCc2csc(-c3ccc(C)cc3)n2)n[nH]c1=O` [CBK295657], 93.3%.

Regarding `Cc1ccc(OCC(=O)NC(C)c2ccc(F)cc2F)c([N+](=O)[O-])n1` (centres unmarked) [CBK295662], the viability at 28.5 h, 10 µM came to 92.7%. Next, `Cc1ccc(CN(C)C(C)C(=O)NCc2cccs2)cc1` (centres unmarked) [CBK295663]: 103%. Regarding `COc1ccc(CN(C(=O)CCc2c(C)[nH]c(=O)c(C#N)c2C)C2CC2)cc1` [CBK295667], the viability at 28.5 h, 10 µM was determined as 97.6%.

Turning to `Cc1ccc(-c2csc(=Nc3ccc(C(=O)O)cc3)n2Cc2ccccc2)cc1` [CBK296062], the viability at 28.5 h, 10 µM is 105%. Take `Cc1cc(=O)[nH]c(SCc2nc3ccccn3c2Br)n1` [CBK296063]: the viability at 28.5 h, 10 µM was 121%. Next, `CCOc1ccc(Nc2nc(-c3ccc(F)cc3)c(CC(=O)O)s2)cc1` [CBK296064]: 99.3%; `O=C(O)CCC(=O)N1N=C2C(=Cc3ccc(F)cc3)CCCC2C1c1ccc(F)cc1` (centres unmarked) [CBK296066]: 93%; `CSCCC(NC(=O)c1ccccc1NC(=O)c1ccc(C)cc1)C(=O)O` (centres unmarked) [CBK296067]: 94.1%.

As to `O=C(O)CCC(=O)N1N=C2C(=Cc3ccco3)CCCC2C1c1ccco1` (centres unmarked) [CBK296069], the viability at 28.5 h, 10 µM was determined as 97.9%. Next, `O=C(O)CCC(=O)N1N=C2C(=Cc3cccc([N+](=O)[O-])c3)CCCC2C1c1cccc([N+](=O)[O-])c1` (centres unmarked) [CBK296071]: 122%; `COc1ccc(C2c3cc(OC)c(OC)cc3CC(=O)N2c2ccc(C(=O)O)cc2)cc1` (centres unmarked) [CBK296074]: 93.6%.

In the case of `CC(=O)Nc1ccc(S(=O)(=O)Nc2nc3ccccc3nc2Nc2ccc(C(=O)O)cc2)cc1` [CBK296079], the viability at 28.5 h, 10 µM came to 125%. For `Cc1c(OCc2ccc(C(=O)O)cc2)ccc2c(-c3ccccc3)cc(=O)oc12` [CBK296080] the value was 117%. Next, `COc1ccc(C2c3cc(OC)c(OC)cc3CC(=O)N2c2ccc(C(=O)O)cc2)cc1OC` (centres unmarked) [CBK296082]: 96.4%; `CCOc1ccc(-n2c(C)cc(C(=O)NS(=O)(=O)c3ccc(C)cc3)c2C)cc1` [CBK296084]: 90.1%. Next, `Cc1ccc(S(=O)(=O)NC(=O)c2cc(C)n(-c3ccc(N(C)C)cc3)c2C)cc1` [CBK296085]: 92.9%. For the molecule `O=C(NCCCCNC(=O)c1scc(-c2ccccc2)c1C(=O)O)c1scc(-c2ccccc2)c1C(=O)O` [CBK296086], the viability at 28.5 h, 10 µM was 107%. Next, `O=C(O)COc1ccc2c(=O)c(Oc3ccc(Cl)cc3)c(C(F)(F)F)oc2c1` [CBK296087]: 119%; `O=C(O)CCCNC(=O)COc1ccccc1OCC(=O)NCCCC(=O)O` [CBK296089]: 90%. As to `O=C(Nc1ccc(SC(F)F)cc1)c1cc(-c2ccncc2)nc2ccccc12` [CBK296092], the viability at 28.5 h, 10 µM worked out at 85.8%.

In the case of `Cc1sc(NC(=O)CC(C)(C)CC(=O)Nc2sc(C)c(C)c2C(=O)O)c(C(=O)O)c1C` [CBK296094], the viability at 28.5 h, 10 µM turned out to be 98.7%. Next, `COc1ccc(-c2onc(C)c2-c2cnn(-c3ccccc3)c2)c(O)c1` [CBK296095]: 116%. Next, `CCOC(=O)c1c(-c2ccc(-c3ccccc3)cc2)csc1NC(=O)c1ccccc1C(=O)O` [CBK296096]: 106%; `CCOc1ccc2cc(C3CC(c4ccccc4)=NN3C(=O)CCC(=O)O)c(Cl)nc2c1` (centres unmarked) [CBK296097]: 114%; `COc1ccc(C=CC(=O)ONC(=O)c2ccc(OC(F)F)cc2)cc1OC` [CBK296098]: 92.8%.

For the molecule `O=c1[nH]c2ccc(NC(=S)NCc3ccccc3)cc2[nH]1` [CBK296099], the viability at 28.5 h, 10 µM was determined as 93.8%. For `CC(C)(CC(=O)Nc1sc2c(c1C(=O)O)CCC2)CC(=O)Nc1sc2c(c1C(=O)O)CCC2` [CBK296100] the value was 92.3%; for `COc1cc(OC)c(NS(=O)(=O)c2cc(C(=O)O)ccc2C)cc1Cl` [CBK296105], 101%; for `O=C(O)CCC(=O)N1N=C(c2c(-c3ccccc3)c3cc(Cl)ccc3[nH]c2=O)CC1c1ccccn1` (centres unmarked) [CBK296106], 97.3%. For `COc1ccc(C(=O)CC(SCC(NC(C)=O)C(=O)O)c2ccc(Cl)cc2)cc1OC` (centres unmarked) [CBK296109], the viability at 28.5 h, 10 µM came to 88.4%.

Turning to `O=C(O)c1cccc(Nc2nc3ccccc3nc2NS(=O)(=O)c2ccc(Br)cc2)c1` [CBK296113], the viability at 28.5 h, 10 µM turned out to be 111%. For `COC(=O)CCc1sc(NC(=O)CSCC(=O)O)nc1-c1ccc(OC)cc1` [CBK296116] the value was 93.6%. Next, `COc1ccc(C2c3cc(OC)c(OC)cc3CC(=O)N2c2cccc(C(=O)O)c2)cc1OC` (centres unmarked) [CBK296118]: 94.1%; `CCOc1ccc(S(=O)(=O)N(C)c2ccc(OCC(=O)O)cc2)cc1` [CBK296119]: 102%; `O=C(O)c1ccc(NC(=O)c2cn(-c3ccccc3)nc2-c2ccccc2)cc1` [CBK296120]: 94.4%. Next, `Cc1c(NS(=O)(=O)c2cc(C(=O)O)c(Cl)cc2Cl)c(=O)n(-c2ccccc2)n1C` [CBK296123]: 90.3%; `O=C(O)CCCC(=O)N1N=C(c2cccs2)CC1c1cn(-c2ccccc2)nc1-c1ccccc1` (centres unmarked) [CBK296124]: 90.3%; `CC(=O)NS(=O)(=O)c1ccc(NC(=O)c2cn(-c3ccccc3)nc2-c2cccs2)cc1` [CBK296125]: 86.3%. In the case of `Cc1ccc(-c2nn(-c3ccccc3)cc2C2CC(c3cccs3)=NN2C(=O)CCC(=O)O)cc1` (centres unmarked) [CBK296126], the viability at 28.5 h, 10 µM is 107%. For `Cc1ccc2cc(C3CC(c4ccccc4)=NN3C(=O)CCC(=O)O)c(=O)[nH]c2c1` (centres unmarked) [CBK296127] the value was 109%; for `COc1ccc(C2CC(c3c(-c4ccccc4)c4cc(Cl)ccc4[nH]c3=O)=NN2C(=O)CCC(=O)O)cc1OC` (centres unmarked) [CBK296128], 103%; for `O=C(O)c1ccc(NS(=O)(=O)c2ccc3c(c2)OCCO3)cc1` [CBK296129], 108%. For `O=C(O)c1ccc(Cl)c(S(=O)(=O)Nc2ccc(I)cc2)c1` [CBK296132] the value was 83.2%. For `CCOC(=O)c1cc(-c2ccc(OC)cc2)nn1-c1ccc(C(=O)O)cc1` [CBK296133], the viability at 28.5 h, 10 µM was 87.9%. For `COc1ccc(C2=NN(c3ccc(C(=O)O)cc3)C(c3ccc(OC)c(OC)c3)C2)cc1` (centres unmarked) [CBK296134] the value was 111%. Next, `COc1ccc(C=CC(=O)N(C)c2ccccc2C(=O)O)cc1` [CBK296135]: 106%; `COc1cc(C=CC(=O)N(C)c2ccccc2C(=O)O)cc(OC)c1OC` [CBK296136]: 93.1%. Next, `O=C(CSc1nc2ccccc2c(=O)n1-c1ccc(F)cc1)Nc1ccc(C(=O)O)cc1` [CBK296140]: 96%; `O=C(NCc1ccc(N2CCCC2=O)cc1)c1cc(Br)ccc1O` [CBK296614]: 91.2%. On to `CNC(=O)c1ccc(NC(=O)CC(C)(C)CC(=O)O)cc1` [CBK296615], for which the viability at 28.5 h, 10 µM worked out at 95.8%. For `Cc1cc(NC(=O)C2CC2)sc1C(=O)NC(C)c1ccc(F)cc1F` (centres unmarked) [CBK296625] the value was 104%; for `Cc1cc2oc(=O)cc(COC(=O)c3ccc(-n4cccn4)cc3)c2cc1Cl` [CBK296626], 93.9%; for `COc1ccc(OCCN(C)c2cnn(-c3ccc(C(=O)O)cc3)c(=O)c2Cl)cc1` [CBK296627], 104%. With `O=C(O)Cc1ccc(OCC(=O)NCc2ccc(Cl)cc2Cl)cc1` [CBK296628], the viability at 28.5 h, 10 µM was 109%.

As for `Cc1oc(CSc2nnc(NCc3ccc(F)cc3)s2)cc1C(=O)O` [CBK296629], the viability at 28.5 h, 10 µM was found to be 91.6%. For `O=C(O)Cc1ccc(OCC(=O)NCCCSc2ccccc2)cc1` [CBK296630] the value was 91.9%; for `O=C(O)C(CCO)Sc1nnc(Nc2ccc(Oc3ccccc3)cc2)s1` (centres unmarked) [CBK296631], 85.7%; for `Cn1c(Cc2csc(NC(=O)c3ccc(Cl)cc3F)n2)n[nH]c1=S` [CBK296635], 94.7%. Next, `CCn1c2ccccc2c2cc(NC(=O)C(C)Sc3n[nH]c(=O)n3C3CC3)ccc21` (centres unmarked) [CBK296636]: 107%; `COC(=O)c1c(C)[nH]c(C(=O)N2CCCC2c2cccnc2)c1C` (centres unmarked) [CBK296639]: 98.8%.

As for `COC(=O)c1ccc(F)c(NC(=O)C2CCCC2)c1` [CBK296640], the viability at 28.5 h, 10 µM came out at 85.5%. Next, `CCN(Cc1ccc(OC)c(OC)c1)C(=O)CSc1nc(CC(=O)O)cs1` [CBK296643]: 97.5%; `CCNC(=O)COc1ccc(C=Cc2nc(-c3ccccc3)c(C(=O)O)s2)cc1OCC` [CBK296644]: 94.6%. Turning to `CC1CCN(C(=O)c2cc(-c3ccco3)[nH]n2)CC1` [CBK296648], the viability at 28.5 h, 10 µM was found to be 101%. For `O=c1oc2ccccc2n1Cc1coc(-c2ccccc2)n1` [CBK296649] the value was 98.1%.
